Test system: AsOMT116
Experiment: Enzyme reaction of crude recombinant AsOMT116 with thujaplicatin and S-adenosylmethionine, product analysed by GC-MS
Assay type: biochemical, Anthrissus sylvestris
Conditions: 0.01 mM substrate, 0.04 mM S-adenosylmethionine, about 3 mg crude enzyme from E. coli, pH 7.5, 30° C., one hour; product identified as 5-methylthujaplicatin by GC-MS
Description: To clarify the biochemical enzyme functions, the enzymes were expressed in Escherichia coli. Using the plasmid for expression of AsOMT116 Escherichia coli obtained above, Escherichia coli BL21 (DE3) strain was transformed in a conventional manner. The resulting transformants were inoculated in 4 ml of LB medium (10 g/l tryptone peptone, 5 g/l yeast extract, 1 g/l NaCl) containing 50 μg/ml of ampicillin followed by shake culture at 37° C. overnight. When the cells reached the stationary phase, 4 ml of the culture broth was inoculated into 80 ml of fresh medium of the same composition, followed by shake culture at 37° C. At the point when the cell turbidity (OD600) reached approximately 0.5, 0.5 mM IPTG in a final concentration was added to the cells, followed by shake culture at 18° C. for 20 hours.
The following procedures were all carried out at 4° C. The transformants cultured were collected by centrifugation (5,000×g, 10 minutes) and suspended by adding 1 ml/g cell of lysis buffer (20 mM HEPES buffer (pH 7.5), 14 mM β-mercaptoethanol). Subsequently, the suspension was ultrasonicated (15 secs.×8 times) and then centrifuged (15,000×g, 15 minutes). The supernatant (soluble fraction) obtained was recovered as a crude enzyme solution. The crude enzyme solution was used for enzyme analysis.
Conditions for the enzyme reaction are as follows. […]

lignan methylation activity (methylation of substrate by AsOMT116): specifically methylates the 5-position
SMILES: COc1cc(C[C@H]2COC(=O)[C@@H]2Cc2cc(O)c(O)c(OC)c2)ccc1O [thujaplicatin]
